Drawing on US9273058B2 (BRISTOL-MYERS SQUIBB COMPANY, priority 2013, dated 2016), this text covers IC50 for 25 compounds.

Where two headings read alike, the source gives them in different places.

In one experiment the target is CK1ε (Homo sapiens, UniProt P49674). The experiment is described as follows: CK1ε kinase assay (Caliper LabChip electrophoretic separation of fluoresceinated peptide substrate and product). It counts as biochemical. Conditions: 200 pM CK1ε, 50 μM ATP, 1.5 μM peptide, 22 hours at room temperature. The method in brief: (§1)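 Reactions ran 22 hours at room temperature and were stopped with EDTA. Phosphorylated product and unphosphorylated substrate were then separated electrophoretically. Compounds were tested at eleven concentrations, and IC50 values came from non-linear regression.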

Another experiment has as its target CK1δ (Homo sapiens, UniProt P48730). Kind of experiment: CK1δ kinase assay (Caliper LabChip electrophoretic separation of fluoresceinated peptide substrate and product). It counts as biochemical. The following applies: 200 pM CK1δ, 50 μM ATP, 1.5 μM peptide, 22 hours at room temperature. Summed up: as §1

Chain of CK1δ (P48730 whole entry): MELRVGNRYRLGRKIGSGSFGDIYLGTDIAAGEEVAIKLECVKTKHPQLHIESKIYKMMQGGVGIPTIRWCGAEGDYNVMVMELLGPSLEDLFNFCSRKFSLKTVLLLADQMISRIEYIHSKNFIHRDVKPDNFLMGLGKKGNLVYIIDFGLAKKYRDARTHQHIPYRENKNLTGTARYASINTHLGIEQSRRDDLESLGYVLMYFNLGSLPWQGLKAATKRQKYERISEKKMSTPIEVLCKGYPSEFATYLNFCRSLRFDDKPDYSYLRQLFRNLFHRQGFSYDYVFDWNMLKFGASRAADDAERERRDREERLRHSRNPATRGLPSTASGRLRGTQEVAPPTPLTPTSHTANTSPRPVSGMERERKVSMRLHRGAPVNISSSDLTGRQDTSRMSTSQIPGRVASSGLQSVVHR
Chain of CK1ε (P49674 whole entry): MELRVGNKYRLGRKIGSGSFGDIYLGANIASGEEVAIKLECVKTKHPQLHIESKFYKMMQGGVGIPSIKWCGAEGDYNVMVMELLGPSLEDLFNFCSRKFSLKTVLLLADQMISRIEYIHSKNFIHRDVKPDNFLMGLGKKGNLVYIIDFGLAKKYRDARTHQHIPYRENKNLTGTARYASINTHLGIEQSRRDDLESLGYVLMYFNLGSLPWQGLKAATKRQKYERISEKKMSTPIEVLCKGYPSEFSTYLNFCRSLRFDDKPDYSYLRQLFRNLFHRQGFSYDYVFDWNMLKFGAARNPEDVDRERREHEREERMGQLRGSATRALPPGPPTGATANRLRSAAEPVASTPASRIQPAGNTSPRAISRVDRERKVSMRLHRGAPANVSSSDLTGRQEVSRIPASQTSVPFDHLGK

For `COc1ccc([C@H]2C[C@@H](NC(=O)N3CCn4nc(-c5ccc(F)c(Cl)c5)c(C(N)=O)c4C3)C2)cc1` [Compound 279, 2-(3-Chloro-4-fluorophenyl)-N^5-((1s,3s)-3-(4-methoxyphenyl)cyclobutyl)-6,7-dihydropyrazolo[1,5-a]pyrazine-3,5(4H)-dicarboxamide], the IC50 at CK1ε (read-out: CK1ε IC50 range) and at CK1δ (read-out: CK1δ IC50 range) was 0.01 to 10 nM throughout.

For the compound `COc1ccc([C@H]2C[C@@H](NC(=O)N3CCn4nc(-c5ccc(Cl)c(Cl)c5)c(C(N)=O)c4C3)C2)cc1` [Compound 280, 2-(3,4-dichlorophenyl)-N^5-((1s,3s)-3-(4-methoxyphenyl)cyclobutyl)-6,7-dihydropyrazolo[1,5-a] pyrazine-3,5(4H)-dicarboxamide], the IC50 at CK1ε (read-out: CK1ε IC50 range) and at CK1δ (read-out: CK1δ IC50 range) was 0.01 to 10 nM throughout.

Turning to `COc1ccc([C@H]2C[C@@H](NC(=O)N3CCn4nc(-c5cccc(Cl)c5)c(C(N)=O)c4C3)C2)cc1` [Compound 281, 2-(3-Chlorophenyl)-N^5-((1s,3s)-3-(4-methoxyphenyl)cyclobutyl)-6,7-dihydropyrazolo[1,5-a] pyrazine-3,5(4H)-dicarboxamide], the IC50 at CK1ε (read-out: CK1ε IC50 range) and at CK1δ (read-out: CK1δ IC50 range) was 0.01 to 10 nM in each case.

As for `N#Cc1ccc([C@H]2C[C@@H](NC(=O)N3CCn4nc(-c5ccc(Cl)c(Cl)c5)c(C(N)=O)c4C3)C2)cc1` [Compound 283, N^5-((1s,3s)-3-(4-Cyanophenyl)cyclobutyl)-2-(3,4-dichlorophenyl)-6,7-dihydropyrazolo[1,5-a]pyrazine-3,5(4H)-dicarboxamide], the IC50 at CK1ε (read-out: CK1ε IC50 range) and at CK1δ (read-out: CK1δ IC50 range) was 0.01 to 10 nM each time.

Regarding `N#Cc1ccc([C@H]2C[C@@H](NC(=O)N3CCn4nc(-c5cccc(Cl)c5)c(C(N)=O)c4C3)C2)cc1` [Compound 284, 2-(3-Chlorophenyl)-N^5-((1s,3s)-3-(4-cyanophenyl)cyclobutyl)-6,7-dihydropyrazolo[1,5-a] pyrazine-3,5(4H)-dicarboxamide], the IC50 at CK1ε (read-out: CK1ε IC50 range) and on CK1δ (read-out: CK1δ IC50 range) was 0.01 to 10 nM throughout.

`CC1(C)CC(NC(=O)N2CCn3nc(-c4ccc(F)c(Cl)c4)c(C(N)=O)c3C2)C1` [Compound 285, 2-(3-Chloro-4-fluorophenyl)-N^5-(3,3-dimethylcyclobutyl)-6,7-dihydropyrazolo[1,5-a]pyrazine-3,5(4H)-dicarboxamide]: the IC50 at CK1ε (read-out: CK1ε IC50 range) and at CK1δ (read-out: CK1δ IC50 range) was 0.01 to 10 nM throughout.

Regarding `CC1(C)CC(NC(=O)N2CCn3nc(-c4cccc(Cl)c4)c(C(N)=O)c3C2)C1` [Compound 286], the IC50 at CK1ε (read-out: CK1ε IC50 range) and at CK1δ (read-out: CK1δ IC50 range) was 0.01 to 10 nM each time.

In the case of `CC1(C)CC(NC(=O)N2CCn3nc(-c4ccc(Cl)c(Cl)c4)c(C(N)=O)c3C2)C1` [Compound 287, 2-(3,4-Dichlorophenyl)-N^5-(3,3-dimethylcyclobutyl)-6,7-dihydropyrazolo[1,5-a] pyrazine-3,5(4H)-dicarboxamide], the IC50 on CK1ε (read-out: CK1ε IC50 range) and at CK1δ (read-out: CK1δ IC50 range) was 0.01 to 10 nM throughout.

Turning to `NC(=O)c1c(-c2ccc(F)c(Cl)c2)nn2c1CN(C(=O)NC1CC(F)(F)C1)CC2` [Compound 291, 2-(3-Chloro-4-fluorophenyl)-N^5-(3,3-difluorocyclobutyl)-6,7-dihydropyrazolo[1,5-a]pyrazine-3,5(4H)-dicarboxamide], the IC50 on CK1ε (read-out: CK1ε) is 1.4 nM; at CK1ε (read-out: CK1ε IC50 range), 0.01 to 10 nM; on CK1δ (read-out: CK1δ), 0.9 nM; on CK1δ (read-out: CK1δ IC50 range), 0.01 to 10 nM.

For the compound `NC(=O)c1c(-c2cccc(Cl)c2)nn2c1CN(C(=O)NC1CC(F)(F)C1)CC2` [Compound 292, 2-(3-Chlorophenyl)-N^5-(3,3-difluorocyclobutyl)-6,7-dihydropyrazolo[1,5-a]pyrazine-3,5(4H)-dicarboxamide], the IC50 on CK1ε (read-out: CK1ε IC50 range) and at CK1δ (read-out: CK1δ IC50 range) was 10 to 100 nM each time.

As to `NC(=O)c1c(-c2cc(Cl)cc(Cl)c2)nn2c1CN(C(=O)NC1CC(F)(F)C1)CC2` [Compound 293, 2-(3,5-Dichlorophenyl)-N^5-(3,3-difluorocyclobutyl)-6,7-dihydropyrazolo[1,5-a] pyrazine-3,5(4H)-dicarboxamide], the IC50 on CK1ε (read-out: CK1ε IC50 range) and at CK1δ (read-out: CK1δ IC50 range) was 0.01 to 10 nM in each case.

For the compound `NC(=O)c1c(-c2ccc(Cl)c(Cl)c2)nn2c1CN(C(=O)NC1CC(F)(F)C1)CC2` [Compound 294, 2-(3,4-Dichlorophenyl)-N^5-(3,3-difluorocyclobutyl)-6,7-dihydropyrazolo[1,5-a] pyrazine-3,5(4H)-dicarboxamide], the IC50 on CK1ε (read-out: CK1ε IC50 range) and on CK1δ (read-out: CK1δ IC50 range) was 0.01 to 10 nM each time.

In the case of `NC(=O)c1c(-c2cc(F)cc(Cl)c2)nn2c1CN(C(=O)NC1CC(F)(F)C1)CC2` [Compound 295, 2-(3-Chloro-5-fluorophenyl)-N^5-(3,3-difluorocyclobutyl)-6,7-dihydropyrazolo[1,5-a] pyrazine-3,5(4H)-dicarboxamide], the IC50 on CK1ε (read-out: CK1ε IC50 range) and at CK1δ (read-out: CK1δ IC50 range) was 0.01 to 10 nM each time.

In the case of `CC1(NC(=O)N2CCn3nc(-c4ccc(F)c(Cl)c4)c(C(N)=O)c3C2)CC(F)(F)C1` [Compound 296, 2-(3-Chloro-4-fluorophenyl)-N^5-(3,3-difluoro-1-methylcyclobutyl)-6,7-dihydropyrazolo[1,5-a]pyrazine-3,5(4H)-dicarboxamide], the IC50 on CK1ε (read-out: CK1ε IC50 range) and at CK1δ (read-out: CK1δ IC50 range) was 0.01 to 10 nM throughout.

Take `CC1(NC(=O)N2CCn3nc(-c4ccc(Cl)c(Cl)c4)c(C(N)=O)c3C2)CC(F)(F)C1` [Compound 297, 2-(3,4-Dichlorophenyl)-N^5-(3,3-difluoro-1-methylcyclobutyl)-6,7-dihydropyrazolo[1,5-a] pyrazine-3,5(4H)-dicarboxamide]: the IC50 was 0.3 nM at CK1ε (read-out: CK1ε), 0.01 to 10 nM on CK1ε (read-out: CK1ε IC50 range), 0.5 nM on CK1δ (read-out: CK1δ) and 0.01 to 10 nM on CK1δ (read-out: CK1δ IC50 range).

Turning to `CC1(NC(=O)N2CCn3nc(-c4cc(Cl)cc(Cl)c4)c(C(N)=O)c3C2)CC(F)(F)C1` [Compound 298, 2-(3,5-Dichlorophenyl)-N^5-(3,3-difluoro-1-methylcyclobutyl)-6,7-dihydropyrazolo[1,5-a] pyrazine-3,5(4H)-dicarboxamide], the IC50 on CK1ε (read-out: CK1ε IC50 range) and on CK1δ (read-out: CK1δ IC50 range) was 0.01 to 10 nM in each case.

As for `CC1(NC(=O)N2CCn3nc(-c4cccc(Cl)c4)c(C(N)=O)c3C2)CC(F)(F)C1` [Compound 299, 2-(3-Chlorophenyl)-N^5-(3,3-difluoro-1-methylcyclobutyl)-6,7-dihydropyrazolo[1,5-a] pyrazine-3,5(4H)-dicarboxamide], the IC50 on CK1ε (read-out: CK1ε IC50 range) and on CK1δ (read-out: CK1δ IC50 range) was 0.01 to 10 nM each time.

Consider `CC1(NC(=O)N2CCn3nc(-c4cc(F)cc(Cl)c4)c(C(N)=O)c3C2)CC(F)(F)C1` [Compound 300, 2-(3-Chloro-5-fluorophenyl)-N^5-(3,3-difluoro-1-methylcyclobutyl)-6,7-dihydropyrazolo[1,5-a]pyrazine-3,5(4H)-dicarboxamide], for which the IC50 on CK1ε (read-out: CK1ε IC50 range) and at CK1δ (read-out: CK1δ IC50 range) was 0.01 to 10 nM throughout.

`NC(=O)c1c(-c2ccc(F)c(Cl)c2)nn2c1CN(C(=O)NC1(C(F)F)CC(F)(F)C1)CC2` [Compound 304, 2-(3-Chloro-4-fluorophenyl)-N^5-(1-(difluoromethyl)-3,3-difluorocyclobutyl)-6,7-dihydropyrazolo[1,5-a]pyrazine-3,5(4H)-dicarboxamide]: the IC50 at CK1ε (read-out: CK1ε IC50 range) and on CK1δ (read-out: CK1δ IC50 range) was 0.01 to 10 nM each time.

Regarding `NC(=O)c1c(-c2ccc(Cl)c(Cl)c2)nn2c1CN(C(=O)NC1(C(F)F)CC(F)(F)C1)CC2` [Compound 305, 2-(3,4-Dichlorophenyl)-N^5-(1-(difluoromethyl)-3,3-difluorocyclobutyl)-6,7-dihydropyrazolo[1,5-a] pyrazine-3,5(4H)-dicarboxamide], the IC50 at CK1ε (read-out: CK1ε IC50 range) and at CK1δ (read-out: CK1δ IC50 range) was 0.01 to 10 nM in each case.

Regarding `NC(=O)c1c(-c2cccc(Cl)c2)nn2c1CN(C(=O)NC1(C(F)F)CC(F)(F)C1)CC2` [Compound 306, 2-(3-Chlorophenyl)-N^5-(1-(difluoromethyl)-3,3-difluorocyclobutyl)-6,7-dihydropyrazolo[1,5-a] pyrazine-3,5(4H)-dicarboxamide], the IC50 at CK1ε (read-out: CK1ε IC50 range) and on CK1δ (read-out: CK1δ IC50 range) was 0.01 to 10 nM each time.

In the case of `CC1(F)CC(C)(NC(=O)N2CCn3nc(-c4ccc(F)c(Cl)c4)c(C(N)=O)c3C2)C1` (stereo not drawn) [Compound 307, 2-(3-Chloro-4-fluorophenyl)-N^5-(3-fluoro-1,3-dimethylcyclobutyl)-6,7-dihydropyrazolo[1,5-a]pyrazine-3,5(4H)-dicarboxamide], the IC50 at CK1ε (read-out: CK1ε IC50 range) and at CK1δ (read-out: CK1δ IC50 range) was 0.01 to 10 nM throughout.

For `NC(=O)c1c(-c2ccc(F)c(Cl)c2)nn2c1CN(C(=O)NC1(c3ccc(F)cc3)CC(F)(F)C1)CC2` [Compound 308, 2-(3-Chloro-4-fluorophenyl)-N^5-(3,3-difluoro-1-(4-fluorophenyl)cyclobutyl)-6,7-dihydropyrazolo[1,5-a]pyrazine-3,5(4H)-dicarboxamide], the IC50 at CK1ε (read-out: CK1ε IC50 range) and at CK1δ (read-out: CK1δ IC50 range) was 0.01 to 10 nM throughout.

Turning to `NC(=O)c1c(-c2cccc(Cl)c2)nn2c1CN(C(=O)NC1(c3ccc(F)cc3)CC(F)(F)C1)CC2` [Compound 309, 2-(3-Chlorophenyl)-N^5-(3,3-difluoro-1-(4-fluorophenyl)cyclobutyl)-6,7-dihydropyrazolo[1,5-a] pyrazine-3,5(4H)-dicarboxamide], the IC50 on CK1ε (read-out: CK1ε IC50 range) and on CK1δ (read-out: CK1δ IC50 range) was 0.01 to 10 nM throughout.

For the compound `NC(=O)c1c(-c2ccc(Cl)c(Cl)c2)nn2c1CN(C(=O)NC1(c3ccc(F)cc3)CC(F)(F)C1)CC2` [Compound 310, 2-(3,4-Dichlorophenyl)-N^5-(3,3-difluoro-1-(4-fluorophenyl)cyclobutyl)-6,7-dihydropyrazolo[1,5-a] pyrazine-3,5(4H)-dicarboxamide], the IC50 on CK1ε (read-out: CK1ε IC50 range) and at CK1δ (read-out: CK1δ IC50 range) was 0.01 to 10 nM throughout.
